Article PMC8838787, “The Antiproliferative and Apoptotic Effects of a Novel Quinazoline Carrying Substituted-Sulfonamides: In Vitro and Molecular Docking Study” (Molecules, 2022)

Legend:
Type in all cases: cell-based, human
[1] = tested on: MCF-7 cells; test: Cell cycle analysis by PI staining and flow cytometry; details: 24 h, mean ± SD, control 57.91 ± 0.61%
Description: Indeed, designing of new chemotherapeutic drugs targeting cell cycle progression and apoptosis is considered as an attractive strategy. To explore the antiproliferative effect of compounds 4d and 4f, cell-cycle analysis was performed in MCF-7 cells were examined. The cells were treated with various concentrations of both compound for 24 h, stained with propidium iodide (PI) and analyzed by flow cytometry. As shown in (Figure 2), the incubation of MCF-7 cells with (1.25, 2.5, and 5 μM) of compound 4d for 24 h increased the percentage of cells at G1 (from 57.91 ± 0.61% in control) to 62.51 ± 0.14%, 64.95 ± 0.21% and 66.55 ± 0.78% in treated cells, respectively.
Cell cycle distribution was evaluated by PI staining as previously described. Briefly, MCF-7 cells were seeded and incubated for a period of 24 h to allow for attachment. Subsequently, cells were exposed to different concentrations of compounds 4d and 4f. After 24 h, cells were harvested and fixed in 70% ethanol. Thereafter, cells were washed with PBS, resuspended in 1 mL of PBS containing PI (50 μg/mL), RNase A (0.5 mg/mL), sodium citrate (0.1%) and Triton X-100 (0.1%), then incubated for 15 min in the dark at room temperature. Flow cytometry was carried out by a FACS Scan Flow Cytometer (Cytomics FC 500; Beckman Coulter, Brea, CA, USA). The data were analyzed using CXP software V. 3.0.

[2] = tested on: MCF-7 cells; test: Annexin V-FITC/PI apoptosis detection; details: 24 h, mean ± SD; for early apoptotic cells: untreated 1.05 ± 0.07%; for late apoptotic cells: control 1.75 ± 0.07%
From the text: In addition to cell cycle arrest, apoptosis is another important anticancer process that inhibits cancer cell proliferation. Therefore, we further used a double labeling staining with Annexin V-FITC and PI to investigate apoptotic cell death. Phosphatidylserine exposure on the cell surface is a hallmark of early and late apoptotic cells, which can be easily identified with Annexin V-FITC [27].
Apoptotic cells were detected using Annexin V-FITC/PI staining protocol (BioLegend, San Diego, CA, USA) according to the manufacturer’s recommendations. Briefly, MCF-7 cells were incubated for 24 h with the different doses of promising compounds 4d and 4f. The cells were then harvested, washed twice with cold PBS and re-suspended with 1× Annexin V binding buffer (100 µL). Thereafter, cells were transferred into flow cytometry tube and stained with 5 μL of Annexin V- FITC and 5 μL PI for 15 min at room temperature in the dark. The cells were processed for apoptosis using a FACS Scan Flow Cytometer (Cytomics FC 500; Beckman Coulter, Brea, CA, USA) and analyzed using CXP software V. 3.0.

[3] = tested on: Bcl-2; test: RT-PCR of apoptotic genes, Bcl-2; details: 24 h, vs DMSO-vehicle treated cells
From the text: (§1) We next used reverse transcription polymerase chain reaction (RT-PCR) and Western blot analysis to look at Bax (proapoptotic), Bcl-2 (antiapoptotic) and caspase 7 (executioner caspase) expression at gene and protein level as an additional marker of apoptosis occurrence. In fact, apoptotic cell death is mostly directed by the levels of Bcl-2 family, whether they are pro-apoptotic or antiapoptotic and targeting these molecules as a therapeutic strategy is continuously under development. As predicted, we observed an upregulation in the expression of Bax in MCF-7 treated cells to (1.7-, 2- and 2.4-fold) with compound 4d and to (1.2-, 1.4- and 1.6-fold) with compound 4f at (1.25, 2.5 and 5 µM) respectively (Figure 6). […] This shifting in Bax to Bcl-2 ratio usually started caspases activation which plays a critical role in apoptosis execution. Among all caspases, caspase 7 is considered as one of the most crucial executioner caspases that mediate cell death, and its expression strongly correlates with apoptosis stimulation.
(§2) The MCF-7 cells (0.1 × 10^6) in 12 well plates were treated with different concentrations of compounds 4d and 4f for 24 h and untreated cells were used as a control. After 24 h of treatment, cell culture media was removed and the cells were lysed with Trizol (Invitrogen, Waltham, MA, USA), and total RNA was extracted from all the samples [42]. The RNA was estimated by Nano-drop and 1 µg of RNA was used in the cDNA synthesis. The cDNA was synthesized from RNA by using a cDNA synthesis kit (Invitrogen, Thermo Fisher Scientific, lnc., Waltham, MA, USA) according to the manufacturer’s instruction. After Reverse transcription at 42 °C for 60 min, RT-PCR was performed using 5× Firepol Master Mix ready to load (Solis BioDyne) according to manufacturer’s instruction. RT-PCR was used to analyze the gene expression level of P53, Bcl2, Bax and caspase 7 using specific sets of primers for each gene, while β-actin was utilized as a housekeeping gene. The program was run as follows, initial denaturation at 95 °C for 5 min; denaturation at 95 °C for 30 s; annealing at 55 °C for 45 s; elongation at 72 °C for 45 s (30 Cycles) and final extension at 72 °C for 10 min. The RT-PCR products were electrophoresed on a 1.2% agarose gel containing ethidium bromide and the gel was imaged on a Licor machine.

[4] = tested on: caspase 7; test: RT-PCR of apoptotic genes, caspase 7; details: 24 h, relative to untreated cells
From the text: as §1, §2

Compound | percentage of cells at G1 ([1]; 1.25 μM) | percentage of cells at G1 ([1]; 2.5 μM) | percentage of cells at G1 ([1]; 5 μM) | early apoptotic cells ([2]; 1.25 µM) | early apoptotic cells ([2]; 2.5 µM) | early apoptotic cells ([2]; 5 µM) | Bcl-2 expression (RT-PCR) ([3]; MCF-7, 1.25 µM) | Bcl-2 expression (RT-PCR) ([3]; MCF-7, 2.5 µM) | Bcl-2 expression (RT-PCR) ([3]; MCF-7, 5 µM) | expression of caspase 7 (RT-PCR) ([4]; MCF-7, 2.5 µM) | expression of caspase 7 (RT-PCR) ([4]; MCF-7, 5 µM) | late apoptotic cells ([2]; 1.25 µM) | late apoptotic cells ([2]; 2.5 µM) | late apoptotic cells ([2]; 10 µM)
COc1cccc2c(=O)n(-c3ccc(S(=O)(=O)NCC(=O)Nc4ccc(C)cc4)cc3)c(SCC(=O)Nc3ccc(C)cc3)nc12 [Compound 4d] | 62.51 ± 0.14% | 64.95 ± 0.21% | 66.55 ± 0.78% | 44.45 ± 1.06% | 67.55 ± 1.34% | 83.75 ± 2.19% | 0.88 fold | 0.68 fold | 0.49 fold | 1.35 fold | 1.58 fold |  |  | 
CCc1cccc(NC(=O)CNS(=O)(=O)c2ccc(-n3c(SCC(=O)Nc4cccc(CC)c4)nc4c(OC)cccc4c3=O)cc2)c1 [Compound 4f, N-(3-ethylphenyl)-2-((3-(4-(N-(2-((3-ethylphenyl)amino)-2-oxoethyl)sulfamoyl)-phe-nyl)-8-methoxy-4-oxo-3,4-dihydroquinazolin-2yl)thio)acetamide] | 61.65 ± 0.21% | 62.65 ± 0.35% | 65.15 ± 0.36% |  |  |  | 0.92 fold | 0.68 fold | 0.62 fold | 1.35 fold | 1.58 fold | 15.4 ± 0.28% | 31.05 ± 1.06% | 52.4 ± 0.28%
